Source: patent US6720324B2, “Selective melanin concentrating hormone-1 (MCH1) receptor antagonists and uses thereof” (Synaptic Pharmaceutical Corporation, priority 2000, dated 2004)
Read-outs that look alike come from different tables or passages of the source. Ends that are not written are not given here.

Legend:
G4F-7 cells = details: cited from earlier work; for Ki: inhibition of radioiodinated [Phe13,Tyr19]-MCH binding
human MCH1 receptor [1] = target: T1, human MCH1 receptor (Homo sapiens, UniProt Q99705); assay: Functional assay: intracellular calcium mobilization (antagonist potency Kb); type: cell-based; parameters: expressed in transfected cells; host or cells: COS-7 cells, transient, DEAE-dextran, plasmid pEXJ.HR-TL231 (ATCC 203197)
T1 sequence (Q99705 whole entry): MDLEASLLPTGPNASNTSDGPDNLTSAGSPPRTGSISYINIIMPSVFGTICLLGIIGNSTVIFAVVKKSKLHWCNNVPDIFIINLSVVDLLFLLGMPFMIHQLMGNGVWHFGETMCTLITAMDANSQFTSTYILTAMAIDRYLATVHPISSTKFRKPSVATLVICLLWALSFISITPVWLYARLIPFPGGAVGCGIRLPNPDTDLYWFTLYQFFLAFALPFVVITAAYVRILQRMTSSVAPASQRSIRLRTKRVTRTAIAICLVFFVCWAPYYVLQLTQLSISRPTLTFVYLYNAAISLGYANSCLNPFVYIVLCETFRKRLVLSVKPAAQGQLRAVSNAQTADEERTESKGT
Description: Intracellular calcium mobilization assays for the MCH1 receptor were carried out using plasmid pEXJ.HR-TL231 (ATCC Accession No. 203197). COS-7 cells were transiently transfected with DNA encoding the MCH1 receptor utilizing the DEAE-dextran method as described above. The intracellular free calcium concentration was measured by fluorescent imaging using the calcium sensitive fluorscent dye Fluo-3. COS-7 cells expressing the human MCH1 receptor were seeded onto sterile 96 well plates, washed with Hank's balanced salt solution (HBSS), containing 20 mM HEPES, 2.5 mM probenecid, and 0.1% BSA, and loaded with the same buffer containing 3.8 μM Fluo-3 for 1 hour at 37° C. After washing with HBSS to remove the fluo-3 solution, cells were equilibrated for 10 minutes.

human MCH1 receptor [2] = target: T1, human MCH1 receptor; assay: Radioligand competition binding with [3H]Compound 10, membranes of A293 cells; details: Table 3, A293 cell membranes, [3H]Compound 10 as radioligand, read-out: hMCH1 * Ki
Description: (§1) For binding assays, pellets of transfected cells are suspended in ice-cold buffer (20 mM Tris.HCl, 5 mM EDTA, pH 7.4) and homogenized by sonication for 7 sec. The cell lysates are centrifuged at 200×g for 5 min at 4° C. The supernatants are then centrifuged at 40,000×g for 20 min at 4° C. The resulting pellets are washed once in the homogenization buffer and suspended in binding buffer (see methods for radioligand binding). Protein concentrations are determined by the method of Bradford (1976) using bovine serum albumin as the standard. Binding assays are usually performed immediately, however it is possible to prepare membranes in batch and store frozen in liquid nitrogen for future use.
Radioligand binding assays for the MCH1 receptor were carried out using plasmid pEXJ.HR-TL231 (ATCC Accession No. 203197). Plasmid pEXJ.HR-TL231 comprises the regulatory elements necessary for expression of DNA in a mammalian cell operatively linked to DNA encoding the human MCH1 receptor so as to permit expression thereof. Plasmid pEXJ.HR-TL231 was deposited on Sep. 17, 1998, with the American Type Culture Collection (ATCC), 12301 Parklawn Drive, Rockville, Md. 20852, U.S.A. under the provisions of the Budapest Treaty for the International Recognition of the Deposit of Microorganisms for the Purposes of Patent Procedure and was accorded ATCC Accession No. 203197. […]

rat 5-HT2C receptor = target: T2, rat 5-HT2C receptor (Rattus norvegicus, UniProt P08909); assay: Radioligand binding assay, cloned receptor; details: Table 2; read-out: r5HT2C Ki
T2 construct: expressed in transfected cells
T2 sequence (P08909 33-460): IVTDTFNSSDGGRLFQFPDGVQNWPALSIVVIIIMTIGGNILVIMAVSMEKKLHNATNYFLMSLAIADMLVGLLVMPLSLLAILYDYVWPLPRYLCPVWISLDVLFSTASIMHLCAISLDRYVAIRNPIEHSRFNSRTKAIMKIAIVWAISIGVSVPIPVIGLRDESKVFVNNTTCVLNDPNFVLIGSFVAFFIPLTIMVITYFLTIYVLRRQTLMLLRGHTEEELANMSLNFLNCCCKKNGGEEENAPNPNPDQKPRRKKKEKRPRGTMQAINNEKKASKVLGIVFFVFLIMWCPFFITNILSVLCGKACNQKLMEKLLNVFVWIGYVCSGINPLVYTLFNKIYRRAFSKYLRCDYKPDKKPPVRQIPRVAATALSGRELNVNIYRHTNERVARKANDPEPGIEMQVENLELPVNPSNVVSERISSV
Description: as §1
(§2) The methods to obtain the cDNA of the human NPY1, NPY5, GALR1, GALR2, and GALR3 and rat 5-HT2C receptors, express said receptors in heterologous systems, and carry out assays to determine binding affinity are described in the following publications and above: human NPY1 (Larhammar et al., 1992), human NPY5 (U.S. Pat. No. 5,602,024, the disclosure of which is hereby incorporated by reference in its entirety into this application), human Gal1 (Habert-Ortoli et al., 1994), human Gal2 (Smith et al., 1997), human Gal3 (Smith et al., 1998), and rat 5-HT2C (Julius et al., 1988).

human NPY1 = target: T3, human NPY1 (Homo sapiens, UniProt P25929); assay: Radioligand binding assay, cloned receptor; details: Table 2; read-out: hNPY1 Ki
T3 construct: expressed in transfected cells
T3 sequence (P25929 1-384): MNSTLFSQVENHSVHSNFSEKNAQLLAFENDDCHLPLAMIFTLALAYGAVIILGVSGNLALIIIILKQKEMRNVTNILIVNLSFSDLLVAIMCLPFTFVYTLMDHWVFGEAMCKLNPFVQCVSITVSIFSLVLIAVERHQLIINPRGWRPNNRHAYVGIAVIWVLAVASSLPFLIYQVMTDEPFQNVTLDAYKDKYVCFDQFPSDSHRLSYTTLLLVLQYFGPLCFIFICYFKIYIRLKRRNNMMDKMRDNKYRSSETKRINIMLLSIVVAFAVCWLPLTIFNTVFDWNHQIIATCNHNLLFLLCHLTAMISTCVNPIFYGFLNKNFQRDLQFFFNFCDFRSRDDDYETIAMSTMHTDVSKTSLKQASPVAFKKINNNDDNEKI
Description: as §1, §2

human GALR2 = target: T4, human GALR2 (Homo sapiens, UniProt O43603); assay: Radioligand binding assay, cloned receptor; details: Table 2; read-out: hGALR2 Ki
T4 construct: expressed in transfected cells
T4 sequence (O43603 1-387): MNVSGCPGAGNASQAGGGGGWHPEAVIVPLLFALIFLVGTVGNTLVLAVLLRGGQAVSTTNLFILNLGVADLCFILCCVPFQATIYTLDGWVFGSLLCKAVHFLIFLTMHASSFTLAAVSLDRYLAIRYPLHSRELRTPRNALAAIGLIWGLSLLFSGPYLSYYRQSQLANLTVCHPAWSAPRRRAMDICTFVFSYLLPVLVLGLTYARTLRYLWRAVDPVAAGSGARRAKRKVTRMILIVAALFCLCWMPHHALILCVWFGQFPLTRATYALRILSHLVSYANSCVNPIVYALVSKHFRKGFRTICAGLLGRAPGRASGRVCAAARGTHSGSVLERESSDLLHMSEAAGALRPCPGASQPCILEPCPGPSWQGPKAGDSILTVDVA
Description: as §1, §2

human GALR3 = target: T5, human GALR3 (Homo sapiens, UniProt O60755); assay: Radioligand binding assay, cloned receptor; details: Table 2; read-out: hGALR3 Ki
T5 construct: expressed in transfected cells
T5 sequence (O60755 1-368): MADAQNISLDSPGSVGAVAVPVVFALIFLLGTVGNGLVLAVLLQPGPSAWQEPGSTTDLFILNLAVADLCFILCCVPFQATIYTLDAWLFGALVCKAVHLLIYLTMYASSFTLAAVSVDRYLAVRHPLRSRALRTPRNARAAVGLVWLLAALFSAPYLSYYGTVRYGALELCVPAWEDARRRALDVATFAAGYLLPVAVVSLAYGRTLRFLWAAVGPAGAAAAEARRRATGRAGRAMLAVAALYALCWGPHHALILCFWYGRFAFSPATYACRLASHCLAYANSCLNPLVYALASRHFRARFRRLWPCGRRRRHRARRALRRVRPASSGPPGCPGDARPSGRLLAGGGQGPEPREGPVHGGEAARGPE
Description: as §1, §2

human GALR1 = target: T6, human GALR1 (Homo sapiens, UniProt P47211); assay: Radioligand binding assay, cloned receptor; details: Table 2; read-out: hGALR1 Ki
T6 construct: expressed in transfected cells
T6 sequence (P47211 1-349): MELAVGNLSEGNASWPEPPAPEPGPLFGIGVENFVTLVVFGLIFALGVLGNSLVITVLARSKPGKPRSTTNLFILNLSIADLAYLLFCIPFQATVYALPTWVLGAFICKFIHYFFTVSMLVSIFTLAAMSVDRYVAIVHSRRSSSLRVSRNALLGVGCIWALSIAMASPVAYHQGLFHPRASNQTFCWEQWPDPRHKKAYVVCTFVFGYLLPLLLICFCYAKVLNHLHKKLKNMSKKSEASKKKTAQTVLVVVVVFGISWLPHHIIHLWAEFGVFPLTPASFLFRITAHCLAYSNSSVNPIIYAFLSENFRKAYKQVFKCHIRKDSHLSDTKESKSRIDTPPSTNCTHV
Description: as §1, §2

human NPY5 = target: T7, human NPY5 (Homo sapiens, UniProt Q15761); assay: Radioligand binding assay, cloned receptor; details: Table 2; read-out: hNPY5 Ki
T7 construct: expressed in transfected cells
T7 sequence (Q15761 1-445): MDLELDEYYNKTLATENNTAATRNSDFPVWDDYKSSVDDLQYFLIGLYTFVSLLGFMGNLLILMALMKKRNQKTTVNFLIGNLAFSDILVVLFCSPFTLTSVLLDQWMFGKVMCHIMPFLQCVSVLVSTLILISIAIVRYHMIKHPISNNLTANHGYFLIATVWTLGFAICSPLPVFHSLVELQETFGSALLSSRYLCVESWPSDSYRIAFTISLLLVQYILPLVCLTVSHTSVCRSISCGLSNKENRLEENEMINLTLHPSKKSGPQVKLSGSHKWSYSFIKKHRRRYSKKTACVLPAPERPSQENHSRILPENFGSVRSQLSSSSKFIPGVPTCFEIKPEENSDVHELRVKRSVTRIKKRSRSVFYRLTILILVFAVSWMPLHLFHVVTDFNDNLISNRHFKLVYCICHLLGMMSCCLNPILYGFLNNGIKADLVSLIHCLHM
Description: as §1, §2

[3] = Table 1, cloned human MCH1 receptor, functional assay, read-out: Kb (nM) hMCH1
[4] = Table 2, antagonist potency at the human MCH1 receptor, read-out: hMCH1 Kb

Question: Which Kd (G4F-7 cells; radioiodinated ligand, G4F-7 cells) does the source give for “[Phe^13,Tyr^19]-MCH: radioiodinated MCH analogue; the ligand retained biological activity and exhibited specific binding to a variety of cell lines” here?
Answer: The Kd was 0.118 nM.

Question: With “rat ANF: rat ANF, weakly inhibited binding of the radioiodinated MCH analogue (SLRRSSCFGGRIDRIGAQSGLGCNSFRY; ends and bridges not checked; cysteine pairing not given here; UniProt P01161 123-150, looked up)” as the compound, how does the Ki (G4F-7 cells) read?
Answer: The Ki was 116 nM.

Question: Which results are given for `O=C(NC1CCN(CCC2CCc3ccccc3C2=O)CC1)c1ccccc1` (centres unmarked) [Example 5]?
Answer: melting point: 158 to 159 °C; Kb (human MCH1 receptor [1]; [3]): 258 nM

Question: For `COCC1=C(C(=O)OC)C(c2ccc(F)c(F)c2)N(C(=O)NCCCN2CCC(c3cccc(NC(C)=O)c3)CC2)C(=O)N1` (single isomer, unassigned; (+)) [Example 10, (+)-1,2,3,6-TETRAHYDRO-1-{N-[4-(3,-ACETAMIDO)-PHENYL-PIPERIDIN-1-YL]PROPYL}CARBOXAMIDO-4-METHOXYMETHYL-6-(3,4-DIFLUORO-PHENYL)-2-OXOPYRIMIDINE-5-CARBOXYLIC ACID METHYL ESTER], which Ki (human MCH1 receptor [2]) is on record?
Answer: Its Ki is 0.08 nM.

Question: What about the Kb (human MCH1 receptor [1]; [3]) of the same compound?
Answer: The Kb was 0.3 nM.

Question: What about the Ki (rat 5-HT2C receptor) of the same compound?
Answer: Its Ki is 29.6 µM.

Question: With `O=C(CCCN1CCC(NC(=O)c2ccccc2)CC1)c1ccc(Cl)cc1` [Example 28, 1-[3-(4-CHLOROBENZOYL)]PROPYL-4-BENZAMIDOPIPERIDINE] as the compound, how does the Kb (human MCH1 receptor [1]; [3]) read?
Answer: The Kb was 60 nM.

Question: And the Kb (human MCH1 receptor [1]; [4])?
Answer: Its Kb is 60 nM.

Question: And the Ki (human NPY1)?
Answer: Its Ki is over 50 µM.

Question: Which inhibition of binding (G4F-7 cells; radioiodinated [Phe13,Tyr19]-MCH binding) does the source give for α-MSH here?
Answer: Its inhibition of binding is “not inhibited”.

Question: Which results are given for `CCN1c2ccc(/C=C3\SC(=S)NC3=O)cc2C(C)=CC1(C)C` [Example 25]?
Answer: Kb (human MCH1 receptor [1]; [3]): 126 nM; Kb (human MCH1 receptor [1]; [4]): 126 nM; Ki (human NPY1): > 50 µM

Question: Which Ki (G4F-7 cells) does the source give for “Melanin-concentrating hormone [native MCH]” here?
Answer: Its Ki is 12 nM.

Question: Which melting point does the source give for `COC(=O)C1=C(C)NC(=O)N(C(=O)NCCCN2CCC3(CCc4ccccc43)CC2)C1c1ccc(F)c(F)c1` (centres unmarked) [Example 32, (1)-1,2,3,6-TETRAHYDRO-1-{N-[4-(DIHYDROINDENE)-1-YL}PROPYL}-CARBOXAMIDO-5-METHOXYCARBONYL-2-OXO-6-(3,4-DIFLUORO)-4-METHYL-PYRIMIDINE] here?
Answer: Its melting point is 150 to 153 °C.

Question: What about the Kb (human MCH1 receptor [1]) of the same compound?
Answer: The Kb was 67 nM.

Question: What does the source list for `CCCCc1ccc(-c2cc(=O)[nH]c3[nH]c(=O)[nH]c(=O)c23)s1` [Example 37, 5-(5-BUTYL-2-THIENYL)PYRIDO[2,3-d]PYRIMIDINE-2,4,7(1H,3H,8H)-TRIONE]?
Answer: Kb (human MCH1 receptor [1]; [3]): 162 nM; Kb (human MCH1 receptor [1]; [4]): 162 nM; Ki (human GALR2): > 50 µM; Ki (human GALR3): > 50 µM; Ki (human GALR1): > 50 µM; Ki (human NPY1): > 50 µM; Ki (human NPY5): > 50 µM; Ki (rat 5-HT2C receptor): > 50 µM

Question: Which melting point does the source give for `COCC1=C(C(=O)OC)C(c2ccc(F)c(F)c2)N(C(=O)NCCCN2CCC(O)(c3ncccc3C)CC2)C(=O)N1` (single isomer, unassigned; (+)) [Example 16] here?
Answer: The melting point was 132 to 135 °C.
